According to publication PMC4004800, “Preclinical evaluation of marketed sodium channel blockers in a rat model of myotonia discloses promising antimyotonic drugs” (Experimental Neurology, 2014):

molecular target: T1, hNav1.4 (human skeletal muscle sodium channel) (Homo sapiens, UniProt P35499); assay: whole-cell patch clamp, sodium current in HEK293; format: cell-based; conditions: holding potential -90 mV, 5 ms pulses to -30 mV at 50 Hz (myotonia-like), tonic + use-dependent block; read by eye from curve; 20-22 °C, pH 7.4; read-out: IC50 (μM) / 50 Hz, hp - 90 mV
T1 construct: gene SCN4A; alpha subunit permanently transfected in HEK293 cells; no beta subunit mentioned
Source text: whole-cell patch clamp, sodium current in HEK293 on hNav1.4 (human skeletal muscle sodium channel)

T1 sequence (P35499 whole entry): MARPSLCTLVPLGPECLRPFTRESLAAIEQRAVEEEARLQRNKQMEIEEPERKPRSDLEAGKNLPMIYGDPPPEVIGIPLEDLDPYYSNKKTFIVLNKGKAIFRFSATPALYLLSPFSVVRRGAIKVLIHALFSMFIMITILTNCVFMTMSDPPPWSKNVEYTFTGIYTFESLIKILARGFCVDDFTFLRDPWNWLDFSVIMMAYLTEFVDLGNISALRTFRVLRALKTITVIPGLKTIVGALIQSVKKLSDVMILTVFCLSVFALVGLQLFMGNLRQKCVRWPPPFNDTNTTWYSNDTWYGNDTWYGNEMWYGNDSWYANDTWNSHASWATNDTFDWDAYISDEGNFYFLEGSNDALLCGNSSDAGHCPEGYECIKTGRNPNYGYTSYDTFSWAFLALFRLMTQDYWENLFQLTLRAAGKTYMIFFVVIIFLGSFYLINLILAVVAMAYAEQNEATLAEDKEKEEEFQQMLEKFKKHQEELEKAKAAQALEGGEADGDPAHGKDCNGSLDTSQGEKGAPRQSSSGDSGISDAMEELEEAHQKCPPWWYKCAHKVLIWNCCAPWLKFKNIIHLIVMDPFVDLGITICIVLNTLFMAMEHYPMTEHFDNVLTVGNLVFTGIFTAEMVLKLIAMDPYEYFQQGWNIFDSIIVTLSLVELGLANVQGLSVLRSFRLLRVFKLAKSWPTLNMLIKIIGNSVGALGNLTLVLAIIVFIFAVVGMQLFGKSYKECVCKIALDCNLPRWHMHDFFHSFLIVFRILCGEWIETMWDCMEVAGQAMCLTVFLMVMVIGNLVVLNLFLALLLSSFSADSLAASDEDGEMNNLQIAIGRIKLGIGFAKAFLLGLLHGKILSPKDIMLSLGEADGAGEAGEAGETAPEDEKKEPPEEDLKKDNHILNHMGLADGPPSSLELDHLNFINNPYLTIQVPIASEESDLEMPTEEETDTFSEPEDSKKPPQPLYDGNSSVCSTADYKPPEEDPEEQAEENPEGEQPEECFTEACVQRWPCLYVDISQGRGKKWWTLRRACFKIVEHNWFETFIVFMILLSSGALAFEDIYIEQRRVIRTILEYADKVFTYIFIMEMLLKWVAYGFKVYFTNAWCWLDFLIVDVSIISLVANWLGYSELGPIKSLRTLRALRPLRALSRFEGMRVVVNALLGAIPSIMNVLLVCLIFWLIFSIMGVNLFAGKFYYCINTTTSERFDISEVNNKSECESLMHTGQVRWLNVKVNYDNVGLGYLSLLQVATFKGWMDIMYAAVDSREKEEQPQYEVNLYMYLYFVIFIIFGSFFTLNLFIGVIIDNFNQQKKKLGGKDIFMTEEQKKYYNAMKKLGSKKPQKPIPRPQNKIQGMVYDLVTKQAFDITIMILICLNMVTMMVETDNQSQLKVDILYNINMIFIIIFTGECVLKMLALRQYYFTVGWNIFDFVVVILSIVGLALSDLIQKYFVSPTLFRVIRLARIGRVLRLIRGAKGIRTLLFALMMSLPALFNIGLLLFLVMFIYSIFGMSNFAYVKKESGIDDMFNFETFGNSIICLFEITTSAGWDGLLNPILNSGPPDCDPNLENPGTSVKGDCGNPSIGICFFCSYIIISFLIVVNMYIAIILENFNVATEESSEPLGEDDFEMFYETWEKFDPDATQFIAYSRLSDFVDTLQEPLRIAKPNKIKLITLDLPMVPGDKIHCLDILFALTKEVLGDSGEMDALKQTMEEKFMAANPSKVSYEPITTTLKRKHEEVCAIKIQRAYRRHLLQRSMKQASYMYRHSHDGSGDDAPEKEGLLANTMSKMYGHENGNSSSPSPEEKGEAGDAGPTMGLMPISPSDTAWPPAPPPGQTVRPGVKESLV

| Compound | IC50 |
| --- | --- |
| Lubeluzole | ~0.3 µM |

same assay, conditions: read-out: IC50 (μM) / 50 Hz, hp - 90 mV

| Compound | IC50 |
| --- | --- |
| Nc1nc2ccc(OC(F)(F)F)cc2s1 [Riluzole] | ~0.9 µM |
| NC(=O)N1c2ccccc2C2OC2c2ccccc21 (stereo not shown) [epo-CBZ] | ~70 µM |
| CCCNCC(O)COc1ccccc1C(=O)CCc1ccccc1 (stereo not shown) [Propafenone] | ~1.5 µM |
| O=C(NCC1CCCCN1)c1cc(OCC(F)(F)F)ccc1OCC(F)(F)F (stereo not shown) [Flecainide] | ~4 µM |
| Cc1cccc(C)c1OCC(C)N (stereo not shown) [Mexiletine] | ~20 µM |
| NC(=O)N1c2ccccc2C=Cc2ccccc21 [Carbamazepine] | ~100 µM |
